Measurements published in patent publication US9957251B2 (Takeda Pharmaceutical Company Limited, priority 2014, dated 2018).

Legend:
[1] = target: T1, CDK8/CycC (Homo sapiens, UniProt P49336); assay: CDK8 inhibitory activity (TR-FRET, Kinase Tracer-236 displacement); format: binding; conditions: 1 μM of the test compound; for inhibition at 1 µM: read-out: Percent inhibition of CDK8 activity (%)
T1 construct: purchased Carna Biosciences
Procedure: (§1) The compound of the present invention was evaluated for its CDK8 inhibitory activity and CDK19 inhibitory activity by the following method. […] The primary diluted solution was dispensed in the amount of 2 μL/well to a 384-well plate, and then, a mixed solution of Eu^3+ Cryptate conjugated mouse monoclonal antibody anti-glutathione S-transferase (Cisbio) diluted 267-fold with an assay buffer and 60 nM Kinase Tracer-236 (Life technologies) was added thereto at 2 μL/well. After the addition, each kinase solution (84 ng/mL CDK8/CycC (Carna Biosciences) diluted with an assay buffer used for CDK8 inhibitory activity measurement, and 87 ng/mL CDC2L6/CycC (Carna Biosciences) diluted with an assay buffer used for CDK19 inhibitory activity measurement) was further added thereto at 2 μL/well. After the addition, the plate was left standing at room temperature for 1 hour, and then, the fluorescence intensity (excitation wavelength 320 nm, fluorescence wavelength 615 nm, 665 nm, delay time 50 μsec) was measured using an EnVision plate reader (PerkinElmer).

[2] = tested on: human multiple myeloma RPMI8226 cells; assay: Inhibitory activity against human multiple myeloma RPMI8226 cell growth (CellTiter-Glo); format: cell-based; conditions: 1 μM of the test compound, cultured for 8 days; for inhibition at 1 µM: Homo sapiens, RPMI-8226, 192 h, read-out: Percent inhibition of RPMI8226 cell growth (%)
Procedure: The compound of the present invention was evaluated for its inhibitory activity against human multiple myeloma RPMI8226 cell growth by the following method.
A suspension of human multiple myeloma RPMI8226 cells (purchased from the Health Protection Agency) was inoculated at 40 μL (300 cells/well) to a 384-well plate and cultured at 37° C. for 1 day in a 5% CO2 incubator. After the culture, each test compound solution was added thereto at a test concentration of 1 μM using TECAN D300, and the cells were further cultured for 8 days. After the culture, CellTiter-Glo™ Luminescent Cell Viability Assay reagent (Promega) was added at 40 μL/well to a 384-well plate, and the amount of luminescence was measured using a luminometer. Inhibitory activity against human multiple myeloma RPMI8226 cell growth (percent inhibition (%)) of the test compound was calculated according to the following formula, which is based on the hypothesis that the amount of residual ATP reflects the number of cells. In this formula, 100% control represents the amount of luminescence from a well with only 0.1% DMSO added. Percent inhibition (%)=(1−(amount of luminescence of the test compound)÷(100% control))×100

[3] = target: T2, CDK19 (CDC2L6/CycC) (Homo sapiens, UniProt Q9BWU1); assay: CDK19 inhibitory activity (TR-FRET, Kinase Tracer-236 displacement); format: binding; conditions: 1 μM of the test compound; for inhibition at 1 µM: read-out: Percent inhibition of CDK19 activity (%)
T2 construct: purchased Carna Biosciences
Procedure: as §1

T1 sequence (P49336 whole entry): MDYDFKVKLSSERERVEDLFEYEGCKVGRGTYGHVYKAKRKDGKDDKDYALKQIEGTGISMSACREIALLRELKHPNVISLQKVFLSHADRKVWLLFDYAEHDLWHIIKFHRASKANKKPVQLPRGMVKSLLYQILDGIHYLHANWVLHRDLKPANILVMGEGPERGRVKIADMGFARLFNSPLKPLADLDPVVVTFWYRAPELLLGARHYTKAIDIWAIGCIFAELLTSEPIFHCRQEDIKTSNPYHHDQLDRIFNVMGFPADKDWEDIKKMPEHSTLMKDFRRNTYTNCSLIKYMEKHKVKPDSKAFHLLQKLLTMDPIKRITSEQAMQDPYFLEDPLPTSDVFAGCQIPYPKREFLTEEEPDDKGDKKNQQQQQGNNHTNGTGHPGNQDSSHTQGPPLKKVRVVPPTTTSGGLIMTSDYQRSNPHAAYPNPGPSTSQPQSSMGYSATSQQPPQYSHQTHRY
T1 sequence (P24863 whole entry partner): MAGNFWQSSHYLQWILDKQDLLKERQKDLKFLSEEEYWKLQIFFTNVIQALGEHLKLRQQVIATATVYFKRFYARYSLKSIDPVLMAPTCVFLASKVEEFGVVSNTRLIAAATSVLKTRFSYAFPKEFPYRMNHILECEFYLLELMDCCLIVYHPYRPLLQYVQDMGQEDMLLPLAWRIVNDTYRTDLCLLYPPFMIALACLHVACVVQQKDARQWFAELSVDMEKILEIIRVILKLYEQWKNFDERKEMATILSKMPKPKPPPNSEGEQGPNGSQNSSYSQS
T2 sequence (Q9BWU1 whole entry): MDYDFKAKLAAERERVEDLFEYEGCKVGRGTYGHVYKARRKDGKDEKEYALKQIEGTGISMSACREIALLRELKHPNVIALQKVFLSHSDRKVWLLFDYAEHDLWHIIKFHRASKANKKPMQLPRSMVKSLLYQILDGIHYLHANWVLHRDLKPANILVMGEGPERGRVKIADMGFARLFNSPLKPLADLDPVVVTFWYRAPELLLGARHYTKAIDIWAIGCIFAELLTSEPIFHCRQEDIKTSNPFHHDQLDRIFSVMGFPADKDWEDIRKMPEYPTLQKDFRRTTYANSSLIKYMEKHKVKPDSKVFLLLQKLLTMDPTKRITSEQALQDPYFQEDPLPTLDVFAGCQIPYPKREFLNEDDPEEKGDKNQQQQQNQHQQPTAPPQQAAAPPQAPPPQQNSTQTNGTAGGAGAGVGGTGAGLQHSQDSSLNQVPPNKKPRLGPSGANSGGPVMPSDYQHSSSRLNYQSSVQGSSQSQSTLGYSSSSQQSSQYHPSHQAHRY
T2 sequence (P24863 whole entry partner): as the sequence (P24863 whole entry partner) above

| inhibition at 1 µM [1] | inhibition at 1 µM [3] | Percent inhibition of CDK8 activity (%) ([1]; methanesulfonate, 1 µM) | Percent inhibition of CDK19 activity (%) ([3]; methanesulfonate, 1 µM) | Structure (SMILES) | inhibition at 1 µM [2] | Percent inhibition of RPMI8226 cell growth (%) ([2]; methanesulfonate, 1 µM) |
| --- | --- | --- | --- | --- | --- | --- |
| 102% | 93% | – | – | COC(C)c1ccc(NC(=O)/C=C/c2cnccc2-c2cnn(C3CC3)c2)cc1 (stereo not drawn) [Example 271, (2E)-3-(4-(1-cyclopropyl-1H-pyrazol-4-yl)pyridin-3-yl)-N-(4-(1-methoxyethyl)phenyl) acrylamide] | 62% | – |
| 98% | 98% | – | – | O=C(/C=C/c1cnccc1-c1cnn(C2CC2)c1)Nc1ccc2c(c1)CN(C(=O)C(F)(F)F)CC2 [Example 248, (2E)-3-(4-(1-Cyclopropyl-1H-pyrazol-4-yl)pyridin-3-yl)-N-(2-(trifluoroacetyl)-1,2,3,4-tetrahydroisoquinolin-7-yl)acrylamide] | 57% | – |
| – | – | 102% | 101% | O=C(/C=C/c1cnccc1-c1cnn(C2CC2)c1)Nc1ccc(CN2CC(F)(F)C2)cc1 [Example 375, (2E)-3-(4-(1-Cyclopropyl-1H-pyrazol-4-yl)pyridin-3-yl)-N-(4-((3,3-difluoroazetidin-1-yl)methyl)phenyl)acrylamide methanesulfonate] | – | 70% |
| 96% | 95% | – | – | CCN1CCc2cc(NC(=O)/C=C/c3cnccc3-c3cnn(C)c3)ccc2C1 [Example 256, (2E)-N-(2-ethyl-1,2,3,4-tetrahydroisoquinolin-6-yl)-3-(4-(1-methyl-1H-pyrazol-4-yl)pyridin-3-yl)acrylamide] | 58% | – |
| 110% | 98% | – | – | O=C(/C=C/c1cnccc1-c1cnn(C2CC2)c1)Nc1ccc(CN2CC3(COC3)C2)cc1 [Example 308, (2E)-3-(4-(1-cyclopropyl-1H-pyrazol-4-yl)pyridin-3-yl)-N-(4-(2-oxa-6-azaspiro [3.3]hept-6-ylmethyl)phenyl)acrylamide] | 56% | – |
| 105% | 94% | – | – | Cn1cc(-c2ccncc2/C=C/C(=O)Nc2ccc3c(c2)CN(CC(F)F)C3)cn1 [Example 342, (2E)-N-(2-(2,2-difluoroethyl)-2,3-dihydro-1H-isoindol-5-yl)-3-(4-(1-methyl-1H-pyrazol-4-yl)pyridin-3-yl)acrylamide] | 63% | – |
| 105% | 99% | – | – | Cn1cc(-c2ccncc2/C=C/C(=O)Nc2ccc(N3CC(F)(F)C3)cc2)cn1 [Example 363, (2E)-N-(4-(3,3-difluoroazetidin-1-yl)phenyl)-3-(4-(1-methyl-1H-pyrazol-4-yl)pyridin-3-yl)acrylamide] | 50% | – |
| 100% | 97% | – | – | Cc1ccc(NC(=O)/C=C/c2cnccc2-c2cn[nH]c2)c(F)c1 [Example 296, (2E)-N-(2-fluoro-4-methylphenyl)-3-(4-(1H-pyrazol-4-yl)pyridin-3-yl)acrylamide] | 59% | – |
| 106% | 100% | – | – | Cn1cc(-c2c(F)cncc2/C=C/C(=O)Nc2ccc3c(c2)CN(CC(C)(F)F)C3)cn1 [Example 351, (2E)-N-(2-(2,2-difluoropropyl)-2,3-dihydro-1H-isoindol-5-yl)-3-(5-fluoro-4-(1-methyl-1H-pyrazol-4-yl)pyridin-3-yl)acrylamide] | 63% | – |
| 95% | 89% | – | – | O=C(/C=C/c1cnccc1-c1cnn(C2CC2)c1)Nc1ccc(C2CC2)cc1 [Example 290] | 53% | – |
| 103% | 101% | – | – | O=C(/C=C/c1cnccc1-c1cnn(C2CC2)c1)Nc1ccc2c(c1)CN(CC(F)(F)F)C2 [Example 319, (2E)-3-(4-(1-Cyclopropyl-1H-pyrazol-4-yl)pyridin-3-yl)-N-(2-(2,2,2-trifluoroethyl)-2,3-dihydro-1H-isoindol-5-yl)acrylamide] | 47% | – |
| 106% | 104% | – | – | Cn1cc(-c2c(F)cncc2/C=C/C(=O)Nc2ccc3c(c2)CN(CC(F)(F)F)C3)cn1 [Example 327, (2E)-3-(5-Fluoro-4-(1-methyl-1H-pyrazol-4-yl)pyridin-3-yl)-N-(2-(2,2,2-trifluoroethyl)-2,3-dihydro-1H-isoindol-5-yl)acrylamide] | 56% | – |

Second part, the molecule before the results:

| Structure (SMILES) | inhibition at 1 µM [1] | inhibition at 1 µM [3] | Percent inhibition of CDK8 activity (%) ([1]; methanesulfonate, 1 µM) | Percent inhibition of CDK19 activity (%) ([3]; methanesulfonate, 1 µM) | inhibition at 1 µM [2] | Percent inhibition of RPMI8226 cell growth (%) ([2]; methanesulfonate, 1 µM) |
| --- | --- | --- | --- | --- | --- | --- |
| Cn1cc(-c2ccncc2/C=C/C(=O)Nc2ccc3c(c2)CCC3=O)cn1 [Example 176, (2E)-3-(4-(1-methyl-1H-pyrazol-4-yl)pyridin-3-yl)-N-(1-oxo-2,3-dihydro-1H-inden-5-yl)acrylamide] | 92% | 87% | – | – | 54% | – |
| Cn1cc(-c2ccncc2/C=C/C(=O)Nc2ccc(CNCC(F)(F)C(F)(F)F)cc2)cn1 [Example 73, (2E)-3-(4-(1-methyl-1H-pyrazol-4-yl)pyridin-3-yl)-N-(4-(((2,2,3,3,3-pentafluoropropyl)amino)methyl)phenyl)acrylamide] | 101% | 99% | – | – | 56% | – |
| Cn1cc(-c2ccncc2/C=C/C(=O)Nc2ccc3c(c2)OCCO3)cn1 [Example 168, (2E)-N-(2,3-dihydro-1,4-benzodioxin-6-yl)-3-(4-(1-methyl-1H-pyrazol-4-yl)pyridin-3-yl)acrylamide] | 100% | 97% | – | – | 59% | – |
| Cc1cc(NC(=O)/C=C/c2cnccc2-c2cnn(C)c2)ccc1CN1CCOCC1 [Example 109, (2E)-N-(3-Methyl-4-(morpholin-4-ylmethyl)phenyl)-3-(4-(1-methyl-1H-pyrazol-4-yl)pyridin-3-yl)acrylamide] | 96% | 98% | – | – | 58% | – |
| Cn1cc(-c2ccncc2/C=C/C(=O)Nc2cccc(-c3cccnc3)c2)cn1 [Example 182, (2E)-3-(4-(1-methyl-1H-pyrazol-4-yl)pyridin-3-yl)-N-(3-(pyridin-3-yl)phenyl)acrylamide] | 84% | 78% | – | – | 58% | – |
| O=C(/C=C/c1cnccc1-c1ccc2[nH]cnc2c1)Nc1ccc(CN2CCOCC2)cc1 [Example 241, (2E)-3-(4-(1H-benzimidazol-5-yl)pyridin-3-yl)-N-(4-(morpholin-4-ylmethyl)phenyl)acrylamide] | 99% | 101% | – | – | 66% | – |
| Cn1cc(-c2ccncc2/C=C/C(=O)Nc2ccc(CN3CC(F)(F)OC(F)(F)C3)cc2)cn1 [Example 58] | 97% | 98% | – | – | 55% | – |
| CC1CN(Cc2ccc(NC(=O)/C=C/c3cnccc3-c3cnn(C)c3)cc2)CCO1 (stereo not drawn) [Example 55, (2E)-N-(4-((2-methylmorpholin-4-yl)methyl)phenyl)-3-(4-(1-methyl-1H-pyrazol-4-yl)pyridin-3-yl)acrylamide] | 99% | 97% | – | – | 55% | – |
| Cn1cc(-c2ccncc2/C=C/C(=O)Nc2ccc3c(c2)CCO3)cn1 [Example 172, (2E)-N-(2,3-dihydro-1-benzofuran-5-yl)-3-(4-(1-methyl-1H-pyrazol-4-yl)pyridin-3-yl)acrylamide] | 96% | 95% | – | – | 55% | – |
| Cn1cc(-c2ccncc2/C=C/C(=O)Nc2ccc(CN3CC4CC3CO4)cc2)cn1 (stereo not drawn) [Example 51, (2E)-3-(4-(1-methyl-1H-pyrazol-4-yl)pyridin-3-yl)-N-(4-(2-oxa-5-azabicyclo[2.2.1]hept-5-ylmethyl)phenyl)acrylamide] | 100% | 96% | – | – | 58% | – |
| O=C(/C=C/c1cnccc1-c1cccs1)Nc1ccc(CCc2nnco2)cc1 [Example 1, (2E)-N-(4-(2-(1,3,4-Oxadiazol-2-yl)ethyl)phenyl)-3-(4-(2-thienyl)pyridin-3-yl)acrylamide] | 101% | 100% | – | – | 59% | – |
| Cn1cc(-c2ccncc2/C=C/C(=O)Nc2ccc3ccncc3c2)cn1 [Example 156, (2E)-N-(isoquinolin-7-yl)-3-(4-(1-methyl-1H-pyrazol-4-yl)pyridin-3-yl)acrylamide] | 94% | 94% | – | – | 55% | – |
